Assay results: US11555072B2, “A33 antibody compositions and methods of using the same in radioimmunotherapy” (MEMORIAL SLOAN KETTERING CANCER CENTER, priority 2017, dated 2023)

What was measured:
SW1222 tumor = assay: i.p. SW1222 tumor model with i.v. T cells; type: in vivo, mice; conditions: 6 doses i.v. over 3 weeks, T cells weekly over 2 weeks
Method: For intraperitoneal (i.p.) tumor models, luciferase expressing LS174T-luc or SW1222-luc cells were resuspended in RPMI medium and injected intraperitoneally into DKO mice. Human effector cells were supplied as activated T cells and injected intravenously. Mice were treated with 2-3 weekly cycles of antibody-T cell-antibody regimen, with each component separated by 3-4 days. Growth of tumors was followed weekly by measuring luminescence signals on an IVIS Spectrum in vivo imaging system ([…]® Inc., Waltham, Mass.) after injection of 3.3 mg/mouse of luciferin. Luminescence was analyzed and quantified using Living Image Software ([…]®-Inc., Waltham, Mass.).
For the SW1222 cell line, tumors were planted intraperitoneally and treated with 6 doses of i.v. antibody over 3 weeks, and i.v. T cell weekly over 2 weeks. […] It is anticipated that additional treatment cycles will completely eradicate the growth of tumors, as in subcutaneous models.

Colo205 tumors = assay: s.c. Colo205 xenograft with PBMCs; type: in vivo, mice
Method: In vivo tumor therapy. For subcutaneous (s.c.) tumor models, LS174T, Colo205 or SNU16 cells were combined with fresh PBMCs at a 1:1 ratio, mixed with […]® (volume of cell:gel=1:2), and implanted (100 μl/mouse) at the flank of Balb/c Rag2^−/−IL2Rγ^−/− (DKO) mice (now commercially available from Taconic as CIEA BRG mice). Treatment started after confirmation of tumor presence with a BIW schedule at 100 μg/mouse and continued for 3-4 weeks. Tumor growth was monitored by weekly measurement of tumor volume using a caliper or a digital device Peira TM900 Scanner (Peira Scientific Instruments, Turnhout, Belgium).
HuA33-BsAb cured MSS tumor COLO205 in a s.c. xenograft model and suppressed tumor growth of metastatic MSS tumor SW1222. Two MSS colon cancer cell lines Colo205 and SW1222 were tested. For Colo205 cells, tumors were implanted subcutaneously with PBMCs as effector cells.

Colo205 cells = assay: TDCC assay with sorted fresh T cell subsets; type: cell-based, human
Method: T-cell dependent cytotoxicity (TDCC) assays. Cytotoxicity assays were performed using both ^51Cr-release assay and Pierce LDH-release assay (Thermo Fisher Scientific, Cambridge, Mass.). For both assays, T cells activated by exposure to anti-CD3/anti-CD28 Dynabeads for 14 days were subsequently used as effector cells, excepted for sorted cells from PBMCs, which were used for TDCC assay without prior stimulation. ^51Cr assay was performed as previously described in Cheng M et al., International Journal of Cancer 136:476-486 (2015). LDH assay was conducted according to the manufacturer's instructions with the following modifications. Briefly, for each assay well of a 96-well round-bottom plate, 1.5×10^4 target cells were incubated with variable number of effector cells, depending on the intended E:T ratios. […] Each condition was done in triplicates. Supernatant was then transferred to a flat bottom plate with reaction substrate and incubated for 30 min before reading at 490 nm, with 680 nm as a reference wavelength. EC50 values were calculated by fitting the curves to a 4-parameter nonlinear regression model using GraphPad Prism.
To determine which subsets of T cells were mobilized by huA33-BsAb, CD45RA(+)CD62L(+) and CD45RA(−)CD45RO(+)CD62L(−) memory subsets from both CD4(+) and CD8(+) T cells were sorted. […]

T cells = assay: Cytokines and cytolytic molecules release assay; type: cell-based, human; conditions: T cells + Colo205, E:T 5:1, over 4 days
Method: Cytokines and cytolytic molecules release assay. T cells were purified from PBMCs using pan T cell isolation kit (Miltenyi Biotec, Cambridge, Mass.). Target and control tumor cells were incubated with 2×10^6 cells/well at an effector to target ratio of 5:1 in 24-well plates in triplicates, with 2 ml total volume per well. Culture supernatants were collected at 24 hours, 48 hours, 72 hours and 96 hours and cytokine levels were measured with flow cytometry using LEGENDplex™ human CD8/NK Panel (BIOLEGEND®, San Diego, Calif.) according to the manufacturer's protocol.
HuA33-BsAb induced secretion of inflammatory cytokines and cytolytic molecules. The secreted cytokine profile of T cells activated by huA33-BsAb in the presence of target tumors was examined. Total T cells were purified from PBMCs and cultured in the presence of Colo205 tumor cells at an effector to target ratio of 5:1. To estimate nonspecific activation, SKMEL5 cells were used as a negative control. Cell culture supernatants were collected daily over 4 days and the levels of cytokines and cytotoxic molecules were measured using a flow cytometry based multiplex method. […] Similarly, a significant amount of IL-6 was secreted by activated T cells. Th17 cytokine IL-17a was also secreted at high levels.

[1] = test system: GPA33-expressing cancer cells; assay: T-cell dependent cytotoxicity (TDCC) assay with activated T cells; type: cell-based, human
Method: T-cell dependent cytotoxicity (TDCC) assays. Cytotoxicity assays were performed using both ^51Cr-release assay and Pierce LDH-release assay (Thermo Fisher Scientific, Cambridge, Mass.). For both assays, T cells activated by exposure to anti-CD3/anti-CD28 Dynabeads for 14 days were subsequently used as effector cells, excepted for sorted cells from PBMCs, which were used for TDCC assay without prior stimulation. ^51Cr assay was performed as previously described in Cheng M et al., International Journal of Cancer 136:476-486 (2015). LDH assay was conducted according to the manufacturer's instructions with the following modifications. Briefly, for each assay well of a 96-well round-bottom plate, 1.5×10^4 target cells were incubated with variable number of effector cells, depending on the intended E:T ratios. Antibodies were then added at different dilutions and the plates were incubated at 37° C. for 16 hours. Each condition was done in triplicates. Supernatant was then transferred to a flat bottom plate with reaction substrate and incubated for 30 min before reading at 490 nm, with 680 nm as a reference wavelength. EC50 values were calculated by fitting the curves to a 4-parameter nonlinear regression model using GraphPad Prism.
Cancer cells were incubated with activated T cells at an effector to target ratio of 10:1 in the presence of 10-fold serial dilutions of huA33-BsAb. GPA33(−) melanoma cell line SKMEL5 and […] cell line TC32 were used as negative controls. […] Maximal level of cytotoxicity seemed to correlate with the level of FACS staining (FIG. 1(D) and FIG. 4(A)). Moreover, TDCC induced by huA33-BsAb was potent, with EC50 values in the pM range.

Substance: huA33-BsAb: huA33 IgG with humanized OKT3 scFv fused to light chain C-terminus, N297A and K322A; SEQ ID NO: 19 and 21
- tumor growth and survival (SW1222 tumor): suppressed tumor growth and significantly prolonged mice survival
- tumor response (Colo205 tumors; 4 doses): completely eradicate Colo205 tumors
- time mice remained tumor free (Colo205 tumors; after a total of 6 doses): at least 4 months
- CD25 expression on T cells from the TDCC assay (Colo205 cells; CD45RO+ and CD45RO− fractions, 48 hours): CD25 expression was upregulated
- cytotoxicity by sorted T cell subsets (Colo205 cells; Colo205, E:T 5:1, 48 hours, LDH assay): both CD4(+) and CD8(+) memory T cell subsets were capable of inducing cytotoxicity
- release of cytotoxic components (sFasL, sFas, Granzyme A, Granzyme B, Perforin, Granulysin) (T cells): all released in the supernatant
- secretion of cytokines by activated T cells (T cells): both Th1 cytokines (IL-2, IFNγ, TNFα) and Th2 cytokines (IL-4, IL-10) were secreted by activated T cells
- redirected T cell killing of GPA33-expressing cancer cells ([1]; LS174T, SW1222, Colo205, SNU16, activated T cells, E:T 10:1, 16 hours): specifically kill all GPA33-expressing cancer cells
- redirected T cell killing of GPA33(−) control cells ([1]; SKMEL5 and TC32, E:T 10:1): sparing SKMEL5 and TC32
- TDCC EC50 values ([1]; activated T cells, E:T 10:1): pM range
